Data published in patent publication US9073941B2, “Compounds and methods for treating tuberculosis infection” (Academia Sinica, priority 2010, dated 2015).
Values after ≈ are worked out from the molar mass of the structure shown. Like-named read-outs stand apart in the source and are kept apart here.

Experiments:
[1] = target: lipoamide dehydrogenase (Lpd) (Mycobacterium tuberculosis (strain ATCC 25618 / H37Rv), UniProt P9WHH9); test: Lipoamide Dehydrogenase (Lpd) Inhibition Assay; assay type: biochemical
[2] = target: Mtb PDH (Lpd+DlaT+AceE) (Mycobacterium tuberculosis (strain ATCC 25618 / H37Rv), UniProt P9WHH9); test: PDH Inhibition Activity; assay type: biochemical
[3] = system: Mycobacterium tuberculosis strains H37Rv; test: In Vitro Antitubercular H37Rv MIC Assay (resazurin); assay type: cell-based; conditions: 168 h
[4] = concentration required for 50% inhibition of LPD activity, DTNB detection, OD405 nm
[5] = concentration required for 50% inhibition of PDH activity, fluorescence ex 360 nm / em 460 nm, read-out: PDH IC50
[6] = growth of Mycobacterium tuberculosis H37Rv, 7H9 medium, 7 days, tested 8-0.25 μg/mL
[7] = Mycobacterium tuberculosis, H37RV

Compound | IC50 [1, 4] | IC50 [2, 5] | MIC [3, 6] | MIC [3, 7] | IC50 [1] | IC50 [2]
CCOC(=O)/C=C\CBr [(XVI)] | 2920 ± 880 nM | 1650 nM | ≤ 0.25 µg/mL |  |  | 
O=C1c2ccccc2C(O)(O)[C@@]1(O)[C@]1(O)C(=O)c2ccccc2C1(O)O [Compound 101] |  | 1930 nM |  | > 8 µg/mL |  | 
CCOc1ccccc1/C=C1\Cc2ccccc2C1=O [Compound 102] |  | 1130 nM | > 8 µg/mL |  |  | 
O=C1c2ccccc2-c2nc3nonc3nc21 [Compound 103] |  | < 40 nM | ≤ 0.25 µg/mL |  |  | 
Nc1c(O)ccc2nsnc12 [Compound 203] |  | 3670 nM | > 8 µg/mL |  |  | 
C=CCOCc1ccccc1 [Compound 301] |  | 760 nM | 8 µg/mL (≈ 54 µM) |  |  | 
O=C(OC[C@H]1O[C@H](OC(=O)c2cc(O)c(O)c(OC(=O)c3cc(O)c(O)c(O)c3)c2)[C@H](OC(=O)c2cc(O)c(O)c(OC(=O)c3cc(O)c(O)c(O)c3)c2)[C@@H](OC(=O)c2cc(O)c(O)c(OC(=O)c3cc(O)c(O)c(O)c3)c2)[C@@H]1OC(=O)c1cc(O)c(O)c(OC(=O)c2cc(O)c(O)c(O)c2)c1)c1cc(O)c(O)c(OC(=O)c2cc(O)c(O)c(O)c2)c1 [Compound 302] |  | 450 nM | > 8 µg/mL |  |  | 
COc1ccc(CCI)cc1 [Compound 303] |  | < 40 nM | 2 µg/mL (≈ 7.63 µM) |  |  | 
c1ccc2c(c1)ccn1c3ccccc3cc21 [Compound 401] |  | 140 nM | > 8 µg/mL |  |  | 
COc1ccc(NC(=O)CN(C)S(=O)(=O)c2cc(Br)cnc2N)cc1 [Compound 500] |  |  | > 8 µg/mL |  |  | 
Cc1ccc(CNC(=O)C2CCN(S(=O)(=O)c3cn(C(C)C)cn3)CC2)cc1 [Compound 501] | 3050 ± 1050 nM | 3130 nM | > 8 µg/mL |  |  | 
Cn1nc(-c2ccccc2)nc2c(=O)n(C)c(=O)nc1-2 [Compound 601] | < 40 nM | < 40 nM |  | > 8 µg/mL |  | 
CCn1nc(-c2ccccc2)nc2c(=O)n(C)c(=O)nc1-2 [Compound 602] |  |  |  | > 8 µg/mL | 230 ± 20 nM | < 40 nM
Cn1nc(-c2ccc(Cl)cc2)nc2c(=O)n(C)c(=O)nc1-2 [Compound 603] |  |  | > 8 µg/mL |  | 100 ± 10 nM | < 40 nM
Cn1nc(-c2ccc(Cl)c(Cl)c2)nc2c(=O)n(C)c(=O)nc1-2 [Compound 604] |  |  | > 8 µg/mL |  | 140 ± 10 nM | < 40 nM
COc1ccc(-c2nc3c(=O)n(C)c(=O)nc-3n(C)n2)cc1 [Compound 605] | 70 ± 10 nM | < 40 nM | 8 µg/mL (≈ 26.7 µM) |  |  | 
COc1ccc(-c2nc3c(=O)n(C)c(=O)nc-3n(C)n2)cc1OC [Compound 606] | 960 ± 70 nM | 1440 nM | > 8 µg/mL |  |  | 
CCn1nc(-c2ccc(OC)cc2)nc2c(=O)n(C)c(=O)nc1-2 [Compound 607] | 60 ± 10 nM | < 40 nM | 8 µg/mL (≈ 25.5 µM) |  |  | 
CCn1nc(-c2cccnc2)nc2c(=O)n(C)c(=O)nc1-2 [Compound 608] |  |  |  | > 8 µg/mL | 190 ± 30 nM | < 40 nM
CCn1nc(/C=C/c2ccccc2)nc2c(=O)n(C)c(=O)nc1-2 [Compound 609] | < 40 nM | < 40 nM |  | > 8 µg/mL |  | 
CCn1nc(-c2cccs2)nc2c(=O)n(C)c(=O)nc1-2 [Compound 610] | < 40 nM | < 40 nM |  | > 8 µg/mL |  | 
Cc1nc2c(=O)n(C)c(=O)nc-2n(C)n1 [Compound 611] | 80 ± 10 nM | < 40 nM |  | 4 µg/mL (≈ 19.3 µM) |  | 
CCn1nc(-c2ccccc2C)nc2c(=O)n(C)c(=O)nc1-2 [Compound 613] | < 40 nM | < 40 nM |  |  |  | 
Cn1nc(-c2ccc([N+](=O)[O-])cc2)nc2c(=O)n(C)c(=O)nc1-2 [Compound 614] | < 40 nM | < 40 nM |  |  |  | 
CCn1nc(-c2ccccc2Cl)nc2c(=O)n(C)c(=O)nc1-2 [Compound 615] | < 40 nM | < 40 nM |  |  |  | 
Cn1nc(-c2ccc(F)cc2)nc2c(=O)n(C)c(=O)nc1-2 [Compound 616] |  |  |  |  | < 40 nM | < 40 nM

Compound | IC50 [1, 4] | IC50 [2, 5] | MIC [3, 6] | MIC [3, 7] | IC50 [1] | IC50 [2]
CCCc1nc2c(=O)n(C)c(=O)nc-2n(C)n1 [Compound 617] | < 40 nM | < 40 nM |  |  |  | 
Cc1ccc(-c2nc3c(=O)n(C)c(=O)nc-3n(C)n2)cc1 [Compound 618] |  |  |  |  | < 40 nM | < 40 nM
Cn1nc(-c2ccc(C(F)(F)F)cc2)nc2c(=O)n(C)c(=O)nc1-2 [Compound 619] | < 40 nM | < 40 nM |  |  |  | 
CCn1nc(-c2ccc([N+](=O)[O-])cc2)nc2c(=O)n(C)c(=O)nc1-2 [Compound 620] | < 40 nM | < 40 nM |  |  |  | 
CCn1nc(-c2ccc(C(=O)OC)cc2)nc2c(=O)n(C)c(=O)nc1-2 [Compound 621] | < 40 nM | < 40 nM |  |  |  | 
CN1N=C(c2ccccc2)Nc2c1nc(O)n(C)c2=O [Compound 701] |  | < 40 nM |  | > 8 µg/mL |  | 
O=C1C=C(NCc2ccccc2)c2ccccc2C1=O [Compound 901] | 100 nM | 4280 nM | 8 µg/mL (≈ 30.4 µM) |  |  | 
Nc1ccc2c(c1)C(=O)C(=O)c1ccccc1-2 [Compound 902] | 670 ± 70 nM | 788 nM | > 8 µg/mL |  |  | 
CC1(C)C(=O)N=C2c3ccccc3C(=O)C(=O)C21 (stereo not shown) [Compound 903] | 860 ± 80 nM | 1170 nM | > 8 µg/mL |  |  | 
O=C1C(=O)c2cc([N+](=O)[O-])ccc2-c2ccccc21 [Compound 904] | 640 ± 50 nM | 691 nM | > 8 µg/mL |  |  | 
O=C1C(=O)c2nn(-c3ccccc3)nc2-c2ccccc21 [Compound 905] |  |  | 8 µg/mL (≈ 29.1 µM) |  | < 40 nM | < 40 nM
CC(=O)C(C(C)=O)C1=CC(=O)C(=O)c2ccccc21 [Compound 906] | 2150 ± 430 nM | > 5000 nM |  |  |  | 
CCCCn1c(NC(=O)c2ccc(Br)o2)c(C#N)c2nc3ccccc3nc21 [Compound 1001] | 1080 ± 240 nM | 954 nM | > 8 µg/mL |  |  | 
C=CCn1c(NS(=O)(=O)c2ccccc2)c(C#N)c2nc3ccccc3nc21 [Compound 1002] | 980 ± 150 nM | 3320 nM | > 8 µg/mL |  |  | 
CCCCn1c(NC(=O)c2ccccc2)c(C#N)c2nc3ccccc3nc21 [Compound 1003] | 520 ± 70 nM | > 5000 nM |  |  |  | 
CCC(C)n1c(NC(=O)c2ccccc2)c(C#N)c2nc3ccccc3nc21 (stereo not shown) [Compound 1004] | 870 ± 100 nM | > 5000 nM |  |  |  | 
CCCCn1c(NS(=O)(=O)c2ccc(C)cc2)c(C#N)c2nc3ccccc3nc21 [Compound 1005] | 900 ± 130 nM | > 5000 nM |  |  |  | 
CCCCn1c(NC(=O)c2cccs2)c(C#N)c2nc3ccccc3nc21 [Compound 1006] | 860 ± 160 nM | > 5000 nM |  |  |  | 
CCCCCn1c(NC(=O)c2ccc(Br)o2)c(C#N)c2nc3ccccc3nc21 [Compound 1007] |  |  |  |  | 1360 ± 160 nM | > 5000 nM
COCCn1c(NC(=O)c2cccc([N+](=O)[O-])c2)c(C#N)c2nc3ccccc3nc21 [Compound 1008] | 1050 ± 140 nM | > 5000 nM |  |  |  | 
CCC(C)n1c(NC(=O)c2ccc(Br)o2)c(C#N)c2nc3ccccc3nc21 (stereo not shown) [Compound 1009] | 1650 ± 230 nM | > 5000 nM |  |  |  | 
N#Cc1c(NC(=O)c2ccc(Cl)c([N+](=O)[O-])c2)n(Cc2ccccc2)c2nc3ccccc3nc12 [Compound 1010] |  |  |  |  | > 4000 nM | > 5000 nM
CCOC(=O)c1c(NS(=O)(=O)c2ccccc2)n(CCCOC)c2nc3ccccc3nc12 [Compound 1011] | 1310 ± 160 nM | > 5000 nM |  |  |  | 
COCCCn1c(N)c(C(=O)NCCC(C)C)c2nc3ccccc3nc21 [Compound 1012] | > 4000 nM | > 5000 nM |  |  |  | 
Cn1c(N)c(C(=O)NCc2ccccc2)c2nc3ccccc3nc21 [Compound 1013] | > 4000 nM | > 5000 nM |  |  |  | 
